{
  "source": "patent US20110190333A1",
  "about": "“DIHYDROTETRABENANZINE FOR THE TREATMENT OF ANXIETY” (Biovail Laboratories International (Barbados) S.R.L., priority 2008, published 2011)",
  "key": {"[1]": {"tested_on": "female hooded-Lister rats", "assay": "Elevated plus maze, Study 1", "format": "in vivo, rat", "source_text": "(§1) The elevated plus maze has been widely used as a test for anxiety, as it avoids confounding effects on consummatory responses or sensitivity to shock and it has a certain level of ethological relevance (see Rodgers R J, Cole J C (1994) The elevated plus maze. Pharmacological methods and ethology. In: Cooper, S J, Hendrie C A (eds) Ethology and Psychopharmacology. J. Wiley & Sons Ltd, pp 9-941994).\n(§2) The maze consists of opposite pairs of open and closed arms, and the proportion of exploration carried out on the open arms is taken to be a measure of anxiety. Thus the percentage of open arm entries is increased by known anxiolytic agents and reduced by anxiogenic compounds (Pellow, S, Chopin P, File S E, Briley, M (1985) Validation of open: closed arm entries in an elevated plus maze as a measure of anxiety in the rat. J. Neurosci. Meth. 14: 149-167). In addition, the plus maze may be used to examine the behavioural response to stress, as exposure induces the release of corticosterone File, S E, Pellow, S (1987) Behavioural pharmacology of minor tranquillisers. J. Pharmacol. Exp. Ther. 35: 265-290). The elevated plus maze is based on an approach conflict model and has been validated as a model of anxiety in the rat (Tomkins D M (1990) The behavioural effects of anxiogenic agents in rodents. PhD thesis. Postgraduate studies in Pharmacology. University of Bradford).\n(§3) Two studies were carried out using the elevated plus maze method and the aim of the studies was to assess the ability of a Isomer A for its ability to produce an anxiolytic effect in female hooded-Lister rats.\n(§4) A total of 90 female hooded-Lister rats were used as subjects for study 1. Female hooded-Lister rats (Harlan, UK) were obtained as adults and weighed approximately 200-220 g at the start of the study. Subjects were housed in routinely used home cages in groups of 5 per cage. Home cages measured 59×35×24 cm. Rats were maintained under standard laboratory conditions on a 12:12 hour light/dark cycle (lights on at 08:00 h). Experimental procedures were performed in the light phase. Laboratory rooms were temperature controlled at 21±2° C. and humidity remained at 40-50% throughout the study. Rats were tested in the naïve state i.e. they had no exposure to the plus maze prior to testing, although they were handled and received sham injections prior to testing.\nIsomer A (1.0-30.0 mg/kg) and chlordiazepoxide (1.0-5.0 mg/kg) were tested. Isomer A was dissolved in water and administered via the oral route 30 minutes prior to testing. Chlordiazepoxide (CDP) was dissolved in saline and administered via the intraperitoneal route 30 min prior to testing.\n(§5) The maze consisted of a +shaped maze, made of Perspex, with two open arms (30×5 cm) and two closed arms (30×5 cm). The maze was arranged so that like arms are opposing. The closed arms were surrounded by matt black walls on all sides (10 cm in height). The maze was elevated to a height of 50 cm, and the surface was covered with a removable rubber matting. The behaviour of drug or vehicle-treated rats was monitored by means of a video camera attached to a TV monitor and video recorder. The rat was placed in the centre square and behaviour monitored over a 10 min test period. […] The maze was cleaned between tests and rats were placed on the maze in a randomised manner in order to minimise the effects of familiar cage mate odours.\n(§6) Behaviour was recorded and the following parameters were analysed from the video tapes using the Hindsight® program for ethological analysis of behaviour: time spent on, and entries into, the open and closed arms, time spent in the centre square and rearing on the open and closed arms.\n(§7) Elevated plus maze data were analysed by a one way ANOVA, followed by Dunnett's t test to assess drug effects on number of entries into the open and closed arms, length of time spent, and number of rears in, open and closed arms, and time spent in the centre square compared with vehicle."}, "[2]": {"tested_on": "female hooded-Lister rats", "assay": "Elevated plus maze, Study 2", "format": "in vivo, rat", "source_text": "as §1, §2, §3\nas §4, with “60” for “90”, “B.” for “1.”, “(Charles River,” for “(Harlan,”, “220-250” for “200-220”\nIsomer A (0.1-2.5 mg/kg) and chlordiazepoxide (2.5 mg/kg) were tested. Isomer A was dissolved in water and administered via the oral route (p.o.) 30 minutes prior to testing. Chlordiazepoxide (CDP) was dissolved in saline and administered via the intraperitoneal route (i.p.) 30 min prior to testing.\nas §5, §6, §7"}, "[3]": {"conditions": "Isomer A 1.0-10 mg/kg p.o., 10 min trial, ANOVA"}, "[4]": {"conditions": "Isomer A 1.0-10 mg/kg p.o., 10 minute trial, ANOVA"}, "[5]": {"conditions": "Isomer A 1.0-10 mg/kg p.o., 10 minute trial, overall ANOVA"}, "[6]": {"conditions": "CDP 2.5 mg/kg i.p. and Isomer A 0.1-2.5 mg/kg p.o., 10 min trial, overall ANOVA"}, "[7]": {"conditions": "CDP 1.0-5.0 mg/kg i.p., 10 min trial, ANOVA"}},
  "data": [
    {"molecule": "COc1cc2c(cc1OC)[C@@H]1C[C@@H](O)[C@H](CC(C)C)CN1CC2", "note": "(single isomer, unassigned) [Isomer A]", "values": [
      {"measurement": "total open arm entries", "setting": "[1]; Isomer A 1 mg/kg p.o., 10 minute trial", "result": "trend towards an increase"},
      {"measurement": "magnitude of the increase in time spent on the open arms relative to CDP at 2.5 mg/kg", "setting": "[1]; Isomer A 1 mg/kg p.o., Study 1", "result": "comparable"},
      {"measurement": "time spent on the open arms", "setting": "[1]; Isomer A 1 mg/kg p.o., post-hoc vs vehicle (p<0.05)", "result": "significant increase"},
      {"measurement": "overall activity levels on the elevated plus maze", "setting": "[1]; Isomer A 30 mg/kg p.o., animals remained stationary for much of the 10 minute test, behaviour not scored", "result": "markedly reduced"},
      {"measurement": "time spent in the centre square", "setting": "[1]; [3]", "result": "no significant effect"},
      {"measurement": "time spent on the closed arms", "setting": "[1]; [3]", "result": "no significant effect"},
      {"measurement": "number of rears", "setting": "[1]; [4]", "result": "no significant effect"},
      {"measurement": "total closed arm entries", "setting": "[1]; [4]", "result": "no significant effect"},
      {"measurement": "time spent on the open arms", "setting": "[1]; [5]", "result": "overall significant effect"},
      {"measurement": "total open arm entries", "setting": "[1]; [5]", "result": "significant effect"},
      {"measurement": "anxiolytic effect on the elevated plus maze", "setting": "[1]; Isomer A, Study 1, some measures of behaviour", "result": "some anxiolytic potential"},
      {"measurement": "time spent on the closed arms", "setting": "[1]; Isomer A, most marked at 1.0 mg/kg p.o., failed to reach statistical significance", "result": "trend towards a reduction"},
      {"measurement": "number of rears", "setting": "[2]; [6]", "result": "no overall significant effect"},
      {"measurement": "time spent in the centre square", "setting": "[2]; [6]", "result": "no overall significant effect"},
      {"measurement": "time spent on the closed arms", "setting": "[2]; [6]", "result": "overall significant effect"},
      {"measurement": "time spent on the open arms", "setting": "[2]; [6]", "result": "overall significant effect"},
      {"measurement": "total closed arm entries", "setting": "[2]; [6]", "result": "no overall significant effect"},
      {"measurement": "total open arm entries", "setting": "[2]; [6]", "result": "no overall significant effect"},
      {"measurement": "time in the centre square", "setting": "[2]; Isomer A 0.1 mg/kg p.o., effect failed to achieve statistical significance", "result": "reduced"},
      {"measurement": "time spent on the closed arms", "setting": "[2]; Isomer A 1.0 mg/kg p.o., post-hoc vs vehicle (p<0.05)", "result": "significant reduction"},
      {"measurement": "magnitude of the increase in time spent on the open arms relative to CDP at 2.5 mg/kg", "setting": "[2]; Isomer A 0.1-2.5 mg/kg p.o., Study 2", "result": "comparable"},
      {"measurement": "time spent on the open arms", "setting": "[2]; Isomer A, all doses 0.1-2.5 mg/kg p.o., post-hoc vs vehicle (p<0.05-p<0.001)", "result": "significant increase"},
      {"measurement": "anxiolytic effect on the elevated plus maze", "setting": "[2]; Isomer A, all doses tested 0.1-2.5 mg/kg p.o., Study 2, certain measures of behaviour", "result": "anxiolytic potential"}
    ]},
    {"molecule": "CNC1=Nc2ccc(Cl)cc2C(c2ccccc2)=[N+]([O-])C1", "note": "[CDP, chlordiazepoxide, reference compound]", "values": [
      {"measurement": "number of rears", "setting": "[1]; [7]", "result": "no significant effect"},
      {"measurement": "time spent on the closed arms", "setting": "[1]; [7]", "result": "no significant effect"},
      {"measurement": "total closed arm entries", "setting": "[1]; CDP 1.0-5.0 mg/kg i.p., 10 minute trial, ANOVA", "result": "no significant effect"}
    ]}
  ]
}
